Measurements from US7776846B2, “Enhancement of activity and/or duration of action of selected anti-inflammatory steroids for topical or other local application” (priority 2003, dated 2010).

Legend:
[1] = test system: forearm of a human volunteer; assay: Human vasoconstriction (blanching) testing, AUC through 18 hours; assay type: in vivo; conditions: for effect on the time period during which hydrocortisone displayed activity / effect on the vasoconstrictor activity of hydrocortisone: co-applied with hydrocortisone; for effect on the vasoconstrictor activity of hydrocortisone: molar ratio hydrocortisone:enhancer 1:5 to 1:1, particularly at the lower concentrations
Procedure: The combinations of the present invention have undergone human vasoconstriction, or blanching, testing. Such testing gives a reliable indication of local anti-inflammatory/glucocorticoid activity.
Test compounds at varying mM concentrations as noted below were dissolved in ethanol/propylene glycol (9/1) solution, and 20 μL of the mixtures were applied to filter paper discs, 0.7 cm in diameter. After ethanol evaporation, each disc was attached to waterproof adhesive tape, then applied to the forearm of a human volunteer and left in place for 4 hours. Groups of 6 forearms were tested at each concentration and the intensity of vasoconstriction was judged at 2, 4, 6, 8, 10, 12 and 18 hours after removal of the discs, except where otherwise indicated.
The grading scale for the vasoconstriction activity was as follows: 0, normal skin; 1, slight pallor of indistinct outline; 2, pallor with at least two corners outlined; 3, even pallor with a clear outline of the application sites; 4, very intense pallor. The scores were totaled at each concentration at each time after removal to give a total score at each time interval and an overall total for each concentration. The higher the total score, the greater the blanching or anti-inflammatory effect.
Tested in this manner were hydrocortisone, Δ^1-cortienic acid, the methyl ester of Δ^1-cortienic acid, a combination of hydrocortisone plus Δ^1-cortienic acid, and a combination of hydrocortisone plus the methyl ester of Δ^1-cortienic acid. The structures of the test compounds are shown below:
The data for Δ^1-CA alone and Δ^1-MeCA alone are from a group of 8 volunteers, rather than the 6 used for the other testing.

[2] = test system: forearms of human volunteers; assay: Further human vasoconstriction testing, AUC through 24 hours; assay type: in vivo; conditions: for AUC (sum of the individual vasoconstriction scores through 24 hours): total of 6 tests; for effect of increasing the ratio of (II) to (Ia/Ib) to about 2:1: HC 25 mM + enhancer 50 mM versus 1:1; for synergism with HC: ratios of HC:enhancer from 5:1 to 1:2
Procedure: The objective of this study was to evaluate the effect of Δ^1-cortienic acid (Δ^1-CA) and the methyl ester of Δ^1-cortienic acid (Δ^1-MeCA) on the vasoconstriction effect of hydrocortisone (HC). The structures for HC, Δ^1-CA and Δ^1-MeCA are given above.
HC (50 mM), Δ^1-CA (0, 10, 25, 50 and 100 mM) and Δ^1-MeCA (0, 10, 25, 50 and 100 mM) were dissolved in a vehicle containing absolute ethanol and propylene glycol (9:1). The resultant HC solutions were mixed (1:1) with vehicle only, or with the Δ^1-CA or Δ^1-MeCA solutions, so that 25 mM of final HC solutions containing various concentrations of Δ^1-CA or Δ^1-MeCA (0 to 50 mM) were obtained. The resultant mixtures (20 μl) were loaded onto circular paper discs (7 mm diameter) that were attached to a water impervious adhesive film (3M). After evaporation of ethanol, the films were applied to the forearms of human volunteers for 4 hours.
Subsequently, the vasoconstriction reaction was judged by the appearance of pallor at various time intervals after the removal of the discs and films (2, 4, 6, 8, 10, 12, 18 and 24 hours after removal). The grading scale was as follows: 0, normal skin; 1, slight pallor; 2, pallor with at least two corners outlined; 3, even pallor with a clear outline of the application sites; 4, very intense pallor. Due to the relatively high variations in response between volunteers, the total score of 6 tests at each time period was taken for the activity evaluation. As before, an overall total for each concentration was obtained. The results were as follows, where AUC was estimated at the sum of the individual scores through 24 hours.

[3] = target: T1, receptor ([3H]-triamcinolone acetonide as tracer) (Rattus norvegicus, UniProt P06536); conditions: medium containing 10^−5M cortienic acid as competitor; cited from earlier work
T1 sequence (P06536 1-795): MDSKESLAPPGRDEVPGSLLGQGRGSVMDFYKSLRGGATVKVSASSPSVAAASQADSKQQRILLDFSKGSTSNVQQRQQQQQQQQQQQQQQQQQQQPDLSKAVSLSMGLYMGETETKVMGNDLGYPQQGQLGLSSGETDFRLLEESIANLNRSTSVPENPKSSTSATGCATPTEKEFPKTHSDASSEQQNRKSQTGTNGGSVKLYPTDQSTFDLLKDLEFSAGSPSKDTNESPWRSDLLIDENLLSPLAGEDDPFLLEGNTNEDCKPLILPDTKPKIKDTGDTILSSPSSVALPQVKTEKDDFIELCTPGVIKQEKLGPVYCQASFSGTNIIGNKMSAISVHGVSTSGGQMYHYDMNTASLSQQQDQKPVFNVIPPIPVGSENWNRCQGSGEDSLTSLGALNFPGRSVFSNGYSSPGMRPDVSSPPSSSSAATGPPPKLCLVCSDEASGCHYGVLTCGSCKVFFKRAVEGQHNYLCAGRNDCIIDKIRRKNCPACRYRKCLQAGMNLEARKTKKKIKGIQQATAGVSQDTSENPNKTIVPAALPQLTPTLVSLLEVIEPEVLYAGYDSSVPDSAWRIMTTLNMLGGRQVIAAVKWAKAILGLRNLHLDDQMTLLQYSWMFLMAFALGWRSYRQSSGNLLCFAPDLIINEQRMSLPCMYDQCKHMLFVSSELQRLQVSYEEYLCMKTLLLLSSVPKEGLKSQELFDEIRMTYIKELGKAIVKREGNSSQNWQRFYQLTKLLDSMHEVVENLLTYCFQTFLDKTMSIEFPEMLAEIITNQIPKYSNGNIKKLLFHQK

[4] = test system: forearms of human volunteers; assay: Further human vasoconstriction testing, AUC through 24 hours; assay type: in vivo; conditions: enhancing agent alone, 0.5-50 mM
[5] = enhancing agent alone, 0.5 mM, group of 8 volunteers
[6] = enhancing agent alone, 2.5 mM, group of 8 volunteers
[7] = enhancing agent alone, 5 mM, group of 8 volunteers
[8] = enhancing agent alone, 25 mM, group of 8 volunteers
[9] = enhancing agent alone, 50 mM, group of 8 volunteers

Row | Compound | vasoconstriction activity when tested alone [1] | effect on the time period during which hydrocortisone displayed activity [1] | effect on the vasoconstrictor activity of hydrocortisone [1] | AUC (sum of the individual vasoconstriction scores through 18 hours) [1, 5] | AUC (sum of the individual vasoconstriction scores through 18 hours) [1, 6] | AUC (sum of the individual vasoconstriction scores through 18 hours) [1, 7] | AUC (sum of the individual vasoconstriction scores through 18 hours) [1, 8] | AUC (sum of the individual vasoconstriction scores through 18 hours) [1, 9] | effect of increasing the ratio of (II) to (Ia/Ib) to about 2:1 [2] | effect on the vasoconstriction activity of HC ([2]; co-applied with HC 25 mM) | synergism with HC [2] | AUC (sum of the individual vasoconstriction scores) [4] | also measured
1 | C[C@]12CCC(=O)C=C1CC[C@@H]1[C@@H]2[C@@H](O)C[C@@]2(C)[C@H]1CC[C@]2(O)C(=O)CO [Hydrocortisone, hydrocortisone, reference compound] | exhibited activity | – | – | – | – | – | – | – | – | – | – | – | time after removal of the disc by which activity was nearly gone ([1]; hydrocortisone alone): ~12 h; AUC (sum of the individual vasoconstriction scores through 18 hours) ([1]; hydrocortisone alone, 1 mM (0.036% by weight), 20 μL on disc, 4 hours, 6 forearms): 0; AUC (sum of the individual vasoconstriction scores through 18 hours) ([1]; hydrocortisone alone, 2 mM (0.073%), 6 forearms): 0; AUC (sum of the individual vasoconstriction scores through 18 hours) ([1]; hydrocortisone alone, 5 mM (0.181%), 6 forearms): 0; AUC (sum of the individual vasoconstriction scores through 18 hours) ([1]; hydrocortisone alone, 10 mM (0.363%), 6 forearms): 3; AUC (sum of the individual vasoconstriction scores through 18 hours) ([1]; hydrocortisone alone, 25 mM (0.906%), 6 forearms): 5; AUC (sum of the individual vasoconstriction scores through 18 hours) ([1]; hydrocortisone alone, 50 mM (1.81%), 6 forearms): 18; AUC (sum of the individual vasoconstriction scores through 24 hours) ([2]; HC 25 mM + Δ^1-CA 0 mM (HC alone, Δ^1-CA series)): 14; AUC (sum of the individual vasoconstriction scores through 24 hours) ([2]; HC 25 mM + Δ^1-MeCA 0 mM (HC alone, Δ^1-MeCA series)): 33
2 | CCOC(=O)O[C@]1(C(=O)OCCl)CC[C@H]2[C@@H]3CCC4=CC(=O)C=C[C@]4(C)[C@H]3[C@@H](O)C[C@@]21C [loteprednol, loteprednol etabonate] | – | – | – | – | – | – | – | – | – | – | – | – | intrinsic activity in receptor binding [3]: intrinsically active
3 | COC(=O)[C@@]1(O)CCC2C3CCC4=CC(=O)C=CC4(C)C3C(O)CC21C (stereo partly drawn) [Δ^1-Cortienic Acid Methyl Ester, methyl 11β,17α-dihydroxyandrosta-1,4-dien-3-one-17β-carboxylate] | neither Δ^1-cortienic acid nor Δ^1-cortienic acid methyl ester had any vasoconstriction activity | able to extend the time period | enhanced the vasoconstrictor activity of hydrocortisone | 0 | 0 | 0 | 0 | 0 | does not appear to add any significant benefit | increased the vasoconstriction activity of HC | synergistic results | 0 | time after which pallor could still be detected in one arm ([2]; co-applied with HC): ≥ 5 days; increasing activity and duration compared with Δ^1-CA ([2]; co-applied with HC 25 mM): higher increasing activity and longer duration
4 | CC12C=CC(=O)C=C1CCC1C2C(O)CC2(C)C1CC[C@]2(O)C(=O)O (stereo partly drawn) [Δ^1-Cortienic Acid, 11β,17α-dihydroxyandrosta-1,4-dien-3-one-17β-carboxylic acid] | neither Δ^1-cortienic acid nor Δ^1-cortienic acid methyl ester had any vasoconstriction activity | able to extend the time period | enhanced the vasoconstrictor activity of hydrocortisone | 0 | 0 | 0 | 0 | 0 | appears to decrease activity | increased the vasoconstriction activity of HC | synergistic results | 0 | –
